# In EPA's ToxValDB 9.5:
# Assays:
# Canidae [1] = conditions: subchronic, oral, diet, Beagle
# Oryctolagus sp. [2] = conditions: acute; dermal
# Rattus norvegicus [3] = conditions: for LD50: acute
# Oryctolagus sp. [4] = conditions: duration: 14 days, oral, gavage, New Zealand
# Rattus norvegicus [5] = conditions: oral; for LOAEL / NOAEL: Crl: CD BR
# Canidae [6] = conditions: oral, gavage, M/F
# [7] = reproduction developmental, duration: 15 days, oral, diet, Sprague-Dawley
# [8] = developmental, M/F, generation: F1, F1: Developmental: Uterus: Dead Fetuses + F1: Developmental: Uterus: Fetuses, Live + F1: Developmental: Whole Body: Body Weight, Fetal + F1…
# [9] = reproduction developmental, F, generation: P0, P0: Developmental: Uterus: Abortions + P0: Developmental: Uterus: Implantation + P0: Developmental: Uterus: Resorptions, Early + P0: …
# [10] = reproduction developmental, F, generation: P0, P0: Uterus: Abortions
# [11] = reproduction developmental, F, generation: P0, P0: Whole Body: Maternal Body Weight Change
# [12] = developmental, duration: 11 days, gavage, M/F, generation: F1, F1: Developmental: Uterus: Dead Fetuses + F1: Developmental: Uterus: Fetuses, Live + F1: Developmental: Whole Body: Body Weight, Fetal + F1…
# [13] = developmental, duration: 11 days, gavage, M/F, Crl:CD(SD) BR, generation: F1, F1: Whole Body: Body Weight, Fetal
# [14] = reproduction developmental, duration: 11 days, gavage, F, generation: P0, P0: Developmental: Uterus: Implantation + P0: Developmental: Uterus: Resorptions, Early + P0: Developmental: Uterus: Resorptions, Late + P0…
# [15] = chronic, duration: 1 years, Beagle, Mydriasis and focal neuronal degeneration
# [16] = subchronic, duration: 3 months, Beagle, Mydriasis
compound,measurement,setting,value
Cc1cc(C(C)(C)C)c(O)c(C)c1Cn1c(=O)n(Cc2c(C)cc(C(C)(C)C)c(O)c2C)c(=O)n(Cc2c(C)cc(C(C)(C)C)c(O)c2C)c1=O [Cyanox CY 1790],NOAEL,Canidae [1]; duration: 13 weeks,46 mg/kg-day
same,NOAEL,Canidae [1]; duration: 30 days,400 mg/kg-day
same,NOAEL,Canidae [1]; duration: 90 days,30 mg/kg-day
same,LD50,Oryctolagus sp. [2],> 5000 mg/kg
same,LD50,"Rattus norvegicus [3]; oral, Wistar",> 10000 mg/kg
same,LOAEL,Rattus norvegicus [3]; [7],10000 ppm
same,NOAEL,Rattus norvegicus [3]; [7],1000 ppm
same,NOAEL,"Rattus norvegicus [3]; reproduction developmental, oral, diet, Sprague-Dawley, generation: F0",1000 ppm
same,NOAEL,"Rattus norvegicus [3]; reproduction developmental, oral, diet, Sprague-Dawley, generation: F1",20000 ppm
same,NOAEL,"Rattus norvegicus [3]; subchronic, duration: 90 days, oral, diet, Sprague-Dawley",400 mg/kg-day
CCN(CCO)S(=O)(=O)C(F)(F)C(F)(F)C(F)(F)C(F)(F)C(F)(F)C(F)(F)C(F)(F)C(F)(F)F [N-Ethyl-N-(2-hydroxyethyl)perfluorooctane sulfonamide],LOAEL,Oryctolagus sp. [4]; [8],2.5 mg/kg-day
same,NOAEL,Oryctolagus sp. [4]; [8],1 mg/kg-day
same,NEL,"Oryctolagus sp. [4]; developmental, M/F, generation: F1, F1: Uterus: Fetuses, Dead + F1: Uterus: Fetuses, Live + F1: Whole Body: Body Weight, Fetal + F1: Whole Body: Fetal Alterations Count, …",3.75 mg/kg-day
same,LOAEL,Oryctolagus sp. [4]; [9],2.5 mg/kg-day
same,NOAEL,Oryctolagus sp. [4]; [9],1 mg/kg-day
same,NEL,"Oryctolagus sp. [4]; reproduction developmental, F, generation: P0, P0: Ovary: Corpora Lutea + P0: Uterus: Implantation + P0: Uterus: Resorptions, Early + P0: Uterus: Resorptions, Late + P0: Whole Body: …",3.75 mg/kg-day
same,NOAEL,"Oryctolagus sp. [4]; reproduction developmental, F, generation: P0, P0: Reproductive: Ovary: Corpora Lutea",3.75 mg/kg-day
same,LEL,Oryctolagus sp. [4]; [10],3.75 mg/kg-day
same,NEL,Oryctolagus sp. [4]; [10],2.5 mg/kg-day
same,LEL,Oryctolagus sp. [4]; [11],2.5 mg/kg-day
same,NEL,Oryctolagus sp. [4]; [11],1 mg/kg-day
same,LOAEL,Rattus norvegicus [5]; [12],10 mg/kg-day
same,NOAEL,Rattus norvegicus [5]; [12],5 mg/kg-day
same,NEL,"Rattus norvegicus [5]; developmental, duration: 11 days, gavage, M/F, Crl:CD(SD) BR, generation: F1, F1: Uterus: Fetuses, Dead + F1: Uterus: Fetuses, Live + F1: Whole Body: Fetal Alterations Count, External Malformations + F1: Whole Body: …",20 mg/kg-day
same,LEL,Rattus norvegicus [5]; [13],10 mg/kg-day
same,NEL,Rattus norvegicus [5]; [13],5 mg/kg-day
same,LOAEL,Rattus norvegicus [5]; [14],10 mg/kg-day
same,NOAEL,Rattus norvegicus [5]; [14],5 mg/kg-day
same,NOAEL,"Rattus norvegicus [5]; reproduction developmental, duration: 11 days, gavage, F, generation: P0, P0: Reproductive: Ovary: Corpora Lutea",20 mg/kg-day
same,NEL,"Rattus norvegicus [5]; reproduction developmental, duration: 11 days, gavage, F, Crl:CD(SD) BR, generation: P0, P0: Ovary: Corpora Lutea + P0: Uterus: Implantation + P0: Uterus: Resorptions, Early + P0: Uterus: Resorptions, Late + P0: Whole Body: …",20 mg/kg-day
same,NEL,"Rattus norvegicus [5]; short-term, duration: 3 weeks, F, Sprague-Dawley, Kidney: Kidney Weight, Absolute + Kidney: Kidney Weight, Relative + Liver: Acyl-CoA Oxidase Activity, Liver + Liver: Catalase (CAT) Activity…",5 mg/kg-day
same,LEL,"Rattus norvegicus [5]; short-term, duration: 3 weeks, F, Sprague-Dawley, Liver: Copper Zinc Superoxide Dismutase (CuZnSOD) Activity, Lver + Liver: Liver Weight, Relative + Liver: Manganese Superoxide Dismutase (…",5 mg/kg-day
CC(C)(C)c1cc(Cn2c(=O)n(Cc3cc(C(C)(C)C)c(O)c(C(C)(C)C)c3)c(=O)n(Cc3cc(C(C)(C)C)c(O)c(C(C)(C)C)c3)c2=O)cc(C(C)(C)C)c1O,NOAEL,Canidae [1]; duration: 90 days,370 mg/kg-day
same,NOAEL,"Canidae [1]; duration: 90 days, F",370 mg/kg-day
same,NOAEL,"Canidae [1]; duration: 90 days, M",370 mg/kg-day
same,LD50,Rattus norvegicus [3]; dermal,> 2000 mg/kg
same,LD50,"Rattus norvegicus [3]; dermal, Albino rats / Tif: RAI f (SPF)",> 2000 mg/kg
same,LD50,"Rattus norvegicus [3]; oral, gavage, Tif : Raif (SPF), F3 - hybrid of RII 1/ Tif x RII 2/ Tif",> 5000 mg/kg
same,NOAEL,"Rattus norvegicus [3]; chronic, duration: 92 days, oral, diet, F, Tif: RAIf (SPF), hybrids of RII/1 x RII/2",62.4 mg/kg-day
same,NOAEL,"Rattus norvegicus [3]; chronic, duration: 92 days, oral, diet, M, Tif: RAIf (SPF), hybrids of RII/1 x RII/2",234 mg/kg-day
same,NOAEC,"Rattus norvegicus [3]; subchronic, duration: 90 days, oral, diet, Albino Rats / Charles River strain",960 mg/kg-day
CO[C@H]1C[C@H](O[C@@H]2/C(C)=C\C[C@@H]3C[C@@H](C[C@]4(C=C[C@H](C)[C@@H](C(C)C)O4)O3)OC(=O)[C@@H]3C=C(C)[C@@H](O)[C@H]4OC/C(=C/C=C\[C@@H]2C)[C@]43O)O[C@@H](C)[C@H]1O[C@H]1C[C@@H](OC)[C@H](NC(C)=O)[C@H](C)O1 [Eprinomectin],LOAEL,Canidae [6]; [15],2 mg/kg-day
same,NOEL,Canidae [6]; [15],1 mg/kg-day
"Cc1ccc2c(=O)c3cccc(CC(=O)O)c3oc2c1C [5,6-Dimethylxanthenone-4-acetic acid]",LOEL,Canidae [6]; [16],0.3 mg/kg-day
same,NOEL,Canidae [6]; [16],0.1 mg/kg-day
CO[C@H]1C[C@H](O[C@H]2[C@H](C)O[C@@H](O[C@@H]3/C(C)=C/C[C@@H]4C[C@@H](C[C@]5(C=C[C@H](C)[C@@H](C6CCCCC6)O5)O4)OC(=O)[C@@H]4C=C(C)[C@@H](O)[C@H]5OC/C(=C\C=C\[C@@H]3C)[C@]54O)C[C@@H]2OC)O[C@@H](C)[C@@H]1O [Doramectin],LOEL,"Canidae [6]; duration: 3 months, Beagle, Mydriasis",0.3 mg/kg-day
same,NOEL,"Canidae [6]; subchronic, duration: 3 months, Dog Other, Mydriasis",0.1 mg/kg-day
